# Results as given in ChEMBL document CHEMBL1955741, “Identification of fused bicyclic heterocycles as potent and selective 5-HT(2A) receptor antagonists for the treatment of insomnia” (Bioorg Med Chem Lett, 2012).
# Calls of active or inactive are those of the source. No cut-off for these calls is given here.
# Experiments:
# [1] = target: T1, 5-hydroxytryptamine receptor 2C (Homo sapiens, UniProt P28335)
# T1 sequence (P28335 whole entry): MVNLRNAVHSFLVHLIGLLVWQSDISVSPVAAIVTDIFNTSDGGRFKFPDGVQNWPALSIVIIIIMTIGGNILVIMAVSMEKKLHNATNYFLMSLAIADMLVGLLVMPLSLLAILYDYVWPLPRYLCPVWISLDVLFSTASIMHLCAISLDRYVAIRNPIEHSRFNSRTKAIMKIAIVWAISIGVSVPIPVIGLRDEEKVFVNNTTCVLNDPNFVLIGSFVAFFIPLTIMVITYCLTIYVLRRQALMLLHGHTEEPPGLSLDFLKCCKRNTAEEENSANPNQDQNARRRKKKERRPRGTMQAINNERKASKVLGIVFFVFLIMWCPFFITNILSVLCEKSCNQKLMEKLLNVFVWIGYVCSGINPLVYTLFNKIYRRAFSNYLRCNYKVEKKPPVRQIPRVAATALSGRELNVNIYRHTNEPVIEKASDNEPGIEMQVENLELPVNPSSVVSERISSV
# [2] = target: 5-hydroxytryptamine receptor 2A (Homo sapiens, UniProt P28223)
# Description: Displacement of [125I]-DOI from recombinant human 5HT2A receptor
# [3] = Half life in po dosed rat; type: ADME, organism-based; details: in vivo
# [4] = target: T2, D(4) dopamine receptor (Homo sapiens) (UniProt P21917); test: Binding affinity to dopamine receptor D4 at 10 uM
# T2 sequence (whole entry): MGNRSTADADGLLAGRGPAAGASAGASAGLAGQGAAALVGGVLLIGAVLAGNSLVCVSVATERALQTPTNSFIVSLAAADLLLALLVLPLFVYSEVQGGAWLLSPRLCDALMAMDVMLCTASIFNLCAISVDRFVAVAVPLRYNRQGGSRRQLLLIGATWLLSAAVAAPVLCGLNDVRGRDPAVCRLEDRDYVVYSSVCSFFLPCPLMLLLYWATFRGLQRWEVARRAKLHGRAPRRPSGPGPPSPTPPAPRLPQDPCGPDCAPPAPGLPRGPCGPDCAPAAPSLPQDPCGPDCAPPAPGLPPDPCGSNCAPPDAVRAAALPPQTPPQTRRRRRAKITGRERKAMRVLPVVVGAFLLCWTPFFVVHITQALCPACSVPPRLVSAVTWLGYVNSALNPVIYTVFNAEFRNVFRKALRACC
# [5] = target: D(2) dopamine receptor (Homo sapiens) (UniProt P14416); test: Binding affinity to dopamine receptor D2 at 10 uM
# Rattus norvegicus [6] = test: AUClast in rat at 3 mg/kg, po; type: ADME, organism-based, Plasma; parameters: time 0 - last, dose 3 mg/kg, route oral; details: in vivo
# Canis familiaris [7] = test: Toxicity in telemetered dog model assessed as change in ECG measures upto 30 mg/kg; type: organism-based, Canis lupus familiaris; parameters: dose 30 mg/kg; details: in vivo
# [8] = Ratio of drug level in brain to plasma in rat at 0.3 mg/kg; type: ADME, organism-based; parameters: dose 0.3 mg/kg; details: read-out: BPR
# Cytochrome P450 2D6 = Cytochrome P450 2D6 (Homo sapiens, UniProt P10635); test: Inhibition of CYP2D6 in human liver microsomes; type: ADME, Microsome
# Rattus norvegicus [9] = test: Antiinsomnia activity in po dosed rat assessed as increase in non-rapid eye movement bout duration after 5 hrs; type: functional, organism-based
# Rattus norvegicus [10] = test: Total clearance in iv dosed rat; type: ADME, organism-based; details: in vivo
# Rattus norvegicus [11] = test: Antiinsomnia activity in rat assessed as increase in delta power at 0.1 mg/kg, po after 1 hr; type: functional, organism-based; parameters: dose 0.1 mg/kg
# [12] = target: D(1A) dopamine receptor (Homo sapiens) (UniProt P21728); test: Binding affinity to dopamine receptor D1 at 10 uM
# Canis familiaris [13] = test: Toxicity in telemetered dog model assessed as change in hemodynamic measures upto 30 mg/kg; type: organism-based, Canis lupus familiaris; parameters: dose 30 mg/kg; details: in vivo
# [14] = Plasma protein binding in human; type: ADME, cell-free; details: read-out: PPB (converted)
# Cytochrome P450 2C9 = Cytochrome P450 2C9 (Homo sapiens, UniProt P11712); test: Inhibition of CYP2C9 in human liver microsomes; type: ADME, Microsome
# [15] = Cmax in rat at 3 mg/kg, po; type: ADME, organism-based; parameters: dose 3 mg/kg, route oral; details: in vivo
# Rattus norvegicus [16] = test: Antiinsomnia activity in rat assessed as increase in delta power at 0.1 mg/kg, po after 3 to 4 hrs; type: functional, organism-based; parameters: dose 0.1 mg/kg
# Rattus norvegicus [17] = test: Antiinsomnia activity in po dosed rat assessed as increase in sleep consolidation after 5 hrs; type: functional, organism-based
# Rattus norvegicus [18] = test: Oral bioavailability in rat; type: ADME, organism-based; details: in vivo
# [19] = target: T3, Alpha-1A adrenergic receptor (Homo sapiens) (UniProt P35348); test: Binding affinity to adrenergic alpha 1 receptor at 10 uM
# T3 sequence (whole entry): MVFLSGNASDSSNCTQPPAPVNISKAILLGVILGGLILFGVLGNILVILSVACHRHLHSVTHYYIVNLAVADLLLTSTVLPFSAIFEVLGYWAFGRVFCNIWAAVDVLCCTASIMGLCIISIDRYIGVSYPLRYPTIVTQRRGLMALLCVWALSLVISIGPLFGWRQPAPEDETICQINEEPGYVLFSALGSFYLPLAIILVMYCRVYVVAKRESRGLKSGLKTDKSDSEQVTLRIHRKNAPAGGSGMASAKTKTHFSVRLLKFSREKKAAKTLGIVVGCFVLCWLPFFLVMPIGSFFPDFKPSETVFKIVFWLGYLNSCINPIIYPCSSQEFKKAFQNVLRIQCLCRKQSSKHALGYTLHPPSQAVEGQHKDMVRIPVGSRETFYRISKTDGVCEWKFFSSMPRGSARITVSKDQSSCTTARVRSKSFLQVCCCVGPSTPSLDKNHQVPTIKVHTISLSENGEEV
# Rattus norvegicus [20] = test: Volume of distribution at steady state in […] rat; type: ADME, organism-based; details: in vivo
# Cytochrome P450 3A4 = Cytochrome P450 3A4 (Homo sapiens, UniProt P08684); test: Inhibition of CYP3A4 in human liver microsomes; type: ADME, Microsome
# Cytochrome P450 2C19 = Cytochrome P450 2C19 (Homo sapiens, UniProt P33261); test: Inhibition of […] in human liver microsomes; type: ADME, Microsome
# [21] = target: D(1B) dopamine receptor (Homo sapiens) (UniProt P21918); test: Binding affinity to dopamine receptor D5 at 10 uM
# [22] = Half life in rat liver microsomes; type: ADME, Microsome
# [23] = target: T4, Alpha-2A adrenergic receptor (Homo sapiens) (UniProt P08913); test: Binding affinity to adrenergic alpha 2 receptor at 10 uM
# T4 sequence (whole entry): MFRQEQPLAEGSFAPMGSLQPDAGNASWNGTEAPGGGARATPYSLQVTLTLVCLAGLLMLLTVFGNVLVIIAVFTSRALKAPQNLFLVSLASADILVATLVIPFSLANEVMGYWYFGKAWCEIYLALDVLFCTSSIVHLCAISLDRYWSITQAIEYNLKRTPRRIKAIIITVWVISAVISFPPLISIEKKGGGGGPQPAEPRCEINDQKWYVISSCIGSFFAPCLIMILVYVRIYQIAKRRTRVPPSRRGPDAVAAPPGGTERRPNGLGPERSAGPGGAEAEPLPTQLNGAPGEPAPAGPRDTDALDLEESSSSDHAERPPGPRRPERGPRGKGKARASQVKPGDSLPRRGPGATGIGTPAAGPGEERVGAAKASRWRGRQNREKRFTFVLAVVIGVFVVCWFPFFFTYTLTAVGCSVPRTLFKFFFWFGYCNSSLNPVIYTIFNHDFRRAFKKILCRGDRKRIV
# Cytochrome P450 1A2 = target: T5, Cytochrome P450 1A2 (Homo sapiens, UniProt P05177); test: Inhibition of CYP1A2 in human liver microsomes; type: ADME, Microsome
# T5 sequence (P05177 whole entry): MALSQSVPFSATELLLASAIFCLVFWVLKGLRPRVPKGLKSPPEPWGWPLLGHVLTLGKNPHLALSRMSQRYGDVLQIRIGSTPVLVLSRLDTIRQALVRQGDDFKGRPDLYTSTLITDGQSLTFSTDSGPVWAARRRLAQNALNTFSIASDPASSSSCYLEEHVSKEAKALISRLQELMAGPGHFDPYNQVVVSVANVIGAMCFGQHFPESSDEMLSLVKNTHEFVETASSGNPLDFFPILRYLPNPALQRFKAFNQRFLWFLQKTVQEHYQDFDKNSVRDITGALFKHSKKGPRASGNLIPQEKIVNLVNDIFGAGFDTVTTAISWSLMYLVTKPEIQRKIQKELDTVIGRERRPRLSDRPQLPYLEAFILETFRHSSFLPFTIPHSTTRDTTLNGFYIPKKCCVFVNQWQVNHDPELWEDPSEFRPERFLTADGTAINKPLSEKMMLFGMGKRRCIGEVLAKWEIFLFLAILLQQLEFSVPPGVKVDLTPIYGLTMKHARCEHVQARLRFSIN
# [24] = Plasma concentration in rat at 0.3 mg/kg after 0.75 hrs; type: ADME, organism-based; parameters: dose 0.3 mg/kg
# [25] = Drug uptake in rat brain at 0.3 mg/kg after 0.75 hrs; type: ADME, organism-based; parameters: dose 0.3 mg/kg; details: read-out: Drug uptake
# Rattus norvegicus [26] = test: Antiinsomnia activity in po dosed rat assessed as decrease in non-rapid eye movement bout number after 5 hrs; type: functional, organism-based
# [27] = target: D(3) dopamine receptor (Homo sapiens) (UniProt P35462); test: Binding affinity to dopamine receptor D3 at 10 uM
# Rattus norvegicus [28] = test: Inhibition of DOI-induced hypolocomotion in rat drug coadministered with DOI 10 mins prior testing; type: functional
# Sequence of 5-hydroxytryptamine receptor 2A (P28223 whole entry): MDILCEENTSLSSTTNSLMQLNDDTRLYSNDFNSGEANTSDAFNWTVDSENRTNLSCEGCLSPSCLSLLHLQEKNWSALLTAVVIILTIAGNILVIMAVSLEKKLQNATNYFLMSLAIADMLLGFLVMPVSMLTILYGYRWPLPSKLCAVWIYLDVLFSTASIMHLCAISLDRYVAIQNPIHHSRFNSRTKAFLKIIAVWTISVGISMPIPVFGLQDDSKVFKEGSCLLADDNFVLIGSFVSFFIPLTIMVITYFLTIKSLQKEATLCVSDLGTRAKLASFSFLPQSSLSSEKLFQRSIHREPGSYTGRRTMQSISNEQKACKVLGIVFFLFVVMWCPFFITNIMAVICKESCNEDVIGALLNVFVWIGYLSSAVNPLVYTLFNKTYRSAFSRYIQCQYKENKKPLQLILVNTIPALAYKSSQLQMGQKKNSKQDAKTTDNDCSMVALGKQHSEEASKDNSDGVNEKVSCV
# Sequence of D(1A) dopamine receptor (Homo sapiens) (P21728 whole entry): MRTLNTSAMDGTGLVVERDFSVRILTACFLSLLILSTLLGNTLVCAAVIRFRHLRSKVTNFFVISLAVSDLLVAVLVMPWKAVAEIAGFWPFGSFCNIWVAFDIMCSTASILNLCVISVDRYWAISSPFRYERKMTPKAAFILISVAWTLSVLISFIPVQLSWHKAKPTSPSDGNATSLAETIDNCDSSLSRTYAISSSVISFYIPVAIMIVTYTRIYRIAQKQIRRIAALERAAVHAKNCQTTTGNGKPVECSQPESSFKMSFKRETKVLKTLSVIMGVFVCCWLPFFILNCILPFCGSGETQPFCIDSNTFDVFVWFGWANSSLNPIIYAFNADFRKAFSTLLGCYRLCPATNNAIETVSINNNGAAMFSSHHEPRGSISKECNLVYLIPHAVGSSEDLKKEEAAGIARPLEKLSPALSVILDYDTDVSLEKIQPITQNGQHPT
# Sequence of D(3) dopamine receptor (Homo sapiens) (P35462 whole entry): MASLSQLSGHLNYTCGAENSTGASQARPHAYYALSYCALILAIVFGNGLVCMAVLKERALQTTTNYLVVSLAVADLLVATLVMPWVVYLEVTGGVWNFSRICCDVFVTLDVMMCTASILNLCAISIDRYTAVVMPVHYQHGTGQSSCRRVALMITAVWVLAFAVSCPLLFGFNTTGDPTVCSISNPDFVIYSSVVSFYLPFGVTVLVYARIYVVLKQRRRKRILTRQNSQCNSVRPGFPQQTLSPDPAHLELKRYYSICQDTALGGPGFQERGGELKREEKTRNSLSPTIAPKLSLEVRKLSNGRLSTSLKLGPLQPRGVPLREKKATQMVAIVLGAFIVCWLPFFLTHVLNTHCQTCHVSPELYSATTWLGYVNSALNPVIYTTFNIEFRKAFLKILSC
# Sequence of Cytochrome P450 2C9 (P11712 whole entry): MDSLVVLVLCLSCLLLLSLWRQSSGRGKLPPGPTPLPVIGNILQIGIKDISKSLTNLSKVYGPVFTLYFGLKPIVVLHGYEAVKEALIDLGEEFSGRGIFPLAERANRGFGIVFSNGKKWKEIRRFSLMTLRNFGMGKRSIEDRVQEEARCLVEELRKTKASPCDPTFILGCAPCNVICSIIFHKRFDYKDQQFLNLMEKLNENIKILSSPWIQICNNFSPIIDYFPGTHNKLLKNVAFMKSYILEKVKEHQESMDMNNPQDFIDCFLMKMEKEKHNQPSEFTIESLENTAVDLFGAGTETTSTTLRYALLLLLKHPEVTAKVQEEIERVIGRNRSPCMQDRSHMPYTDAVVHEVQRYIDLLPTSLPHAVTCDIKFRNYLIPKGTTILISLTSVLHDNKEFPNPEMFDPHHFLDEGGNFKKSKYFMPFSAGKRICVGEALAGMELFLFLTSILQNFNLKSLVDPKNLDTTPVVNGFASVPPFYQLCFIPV
# Sequence of Cytochrome P450 2D6 (P10635 whole entry): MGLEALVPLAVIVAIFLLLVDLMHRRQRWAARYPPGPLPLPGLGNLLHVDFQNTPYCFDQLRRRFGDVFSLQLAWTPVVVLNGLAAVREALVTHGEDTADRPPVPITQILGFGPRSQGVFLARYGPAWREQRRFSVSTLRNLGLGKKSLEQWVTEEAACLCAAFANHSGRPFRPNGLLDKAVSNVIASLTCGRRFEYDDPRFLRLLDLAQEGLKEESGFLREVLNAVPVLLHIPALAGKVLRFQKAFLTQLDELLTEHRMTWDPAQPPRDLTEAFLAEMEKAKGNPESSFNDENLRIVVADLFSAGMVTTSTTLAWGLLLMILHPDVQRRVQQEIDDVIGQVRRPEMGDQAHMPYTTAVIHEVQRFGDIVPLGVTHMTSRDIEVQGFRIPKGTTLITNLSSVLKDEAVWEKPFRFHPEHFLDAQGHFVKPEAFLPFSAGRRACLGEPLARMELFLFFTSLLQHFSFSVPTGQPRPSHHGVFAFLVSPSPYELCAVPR
# Sequence of Cytochrome P450 3A4 (P08684 whole entry): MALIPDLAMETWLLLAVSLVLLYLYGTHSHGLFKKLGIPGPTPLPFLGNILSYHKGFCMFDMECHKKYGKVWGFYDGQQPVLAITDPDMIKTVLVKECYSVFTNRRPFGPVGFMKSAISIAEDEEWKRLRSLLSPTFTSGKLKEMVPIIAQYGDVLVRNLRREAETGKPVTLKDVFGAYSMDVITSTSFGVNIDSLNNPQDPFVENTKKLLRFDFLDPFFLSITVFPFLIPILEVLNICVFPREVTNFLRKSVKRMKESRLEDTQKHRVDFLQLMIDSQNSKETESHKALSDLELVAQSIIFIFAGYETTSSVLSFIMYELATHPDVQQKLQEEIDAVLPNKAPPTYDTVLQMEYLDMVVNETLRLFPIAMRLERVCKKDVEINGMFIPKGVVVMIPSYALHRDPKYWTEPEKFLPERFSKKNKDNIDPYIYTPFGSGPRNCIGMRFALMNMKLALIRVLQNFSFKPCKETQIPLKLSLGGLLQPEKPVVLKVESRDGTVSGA
# Sequence of Cytochrome P450 2C19 (P33261 whole entry): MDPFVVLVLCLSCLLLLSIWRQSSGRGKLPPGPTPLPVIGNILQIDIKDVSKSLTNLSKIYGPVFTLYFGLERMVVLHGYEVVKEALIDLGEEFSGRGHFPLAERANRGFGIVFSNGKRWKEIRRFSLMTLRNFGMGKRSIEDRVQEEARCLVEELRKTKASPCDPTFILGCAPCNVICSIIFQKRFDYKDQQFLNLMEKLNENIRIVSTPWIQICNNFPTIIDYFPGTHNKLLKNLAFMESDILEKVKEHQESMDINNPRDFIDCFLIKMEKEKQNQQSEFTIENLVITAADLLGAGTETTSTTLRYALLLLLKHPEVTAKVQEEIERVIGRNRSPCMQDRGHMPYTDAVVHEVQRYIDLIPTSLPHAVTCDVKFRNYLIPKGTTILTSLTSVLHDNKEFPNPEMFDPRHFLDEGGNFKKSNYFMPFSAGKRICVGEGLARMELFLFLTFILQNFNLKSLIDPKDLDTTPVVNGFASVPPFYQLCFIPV
# Sequence of D(1B) dopamine receptor (Homo sapiens) (P21918 whole entry): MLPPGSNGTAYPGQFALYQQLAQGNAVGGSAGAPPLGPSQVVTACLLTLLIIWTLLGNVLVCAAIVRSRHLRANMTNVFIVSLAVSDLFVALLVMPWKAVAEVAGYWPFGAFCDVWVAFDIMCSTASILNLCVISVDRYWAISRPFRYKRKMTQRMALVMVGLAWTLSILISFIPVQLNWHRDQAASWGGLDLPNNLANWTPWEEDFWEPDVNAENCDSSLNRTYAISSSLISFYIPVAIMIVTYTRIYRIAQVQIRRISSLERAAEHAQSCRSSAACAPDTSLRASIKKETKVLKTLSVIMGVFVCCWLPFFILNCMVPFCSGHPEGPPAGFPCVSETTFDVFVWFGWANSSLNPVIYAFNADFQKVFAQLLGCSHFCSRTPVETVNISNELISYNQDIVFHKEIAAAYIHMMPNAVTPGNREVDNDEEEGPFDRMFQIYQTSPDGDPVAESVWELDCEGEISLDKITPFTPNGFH
# Sequence of D(2) dopamine receptor (Homo sapiens) (P14416 whole entry): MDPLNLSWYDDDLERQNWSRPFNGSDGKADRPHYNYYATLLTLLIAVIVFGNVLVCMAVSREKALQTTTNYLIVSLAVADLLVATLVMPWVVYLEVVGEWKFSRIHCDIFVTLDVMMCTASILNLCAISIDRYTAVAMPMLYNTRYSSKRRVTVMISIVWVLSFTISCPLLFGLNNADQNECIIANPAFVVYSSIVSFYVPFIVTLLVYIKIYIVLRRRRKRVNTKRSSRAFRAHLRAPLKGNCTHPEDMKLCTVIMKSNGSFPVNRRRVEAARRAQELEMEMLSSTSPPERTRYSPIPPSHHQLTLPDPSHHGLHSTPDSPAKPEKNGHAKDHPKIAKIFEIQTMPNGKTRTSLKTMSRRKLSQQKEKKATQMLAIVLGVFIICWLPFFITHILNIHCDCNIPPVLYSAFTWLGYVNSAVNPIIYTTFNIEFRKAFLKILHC
structure (smiles),measurement,setting,value
O=C(c1cccc2ccnn12)N1CCN(CCc2ccc(F)cc2F)CC1,Ki,[1],194 nM
same,Ki,[2],0.4 nM
O=C(c1cc(Br)cn2ccnc12)N1CCN(CCc2ccc(F)cc2F)CC1,Ki,[1],474 nM
same,Ki,[2],5 nM
O=C(c1cc2ccccn2n1)N1CCN(CCc2ccc(F)cc2F)CC1,Ki,[1],467 nM
same,Ki,[2],5.7 nM
Nc1cccc2nc(C(=O)N3CCN(CCc4ccc(F)cc4F)CC3)cn12,Ki,[1],152 nM
same,Ki,[2],1.4 nM
O=C(c1nn2ccccc2c1Cl)N1CCN(CCc2ccc(F)cc2F)CC1,Ki,[1],394 nM
same,Ki,[2],0.6 nM
O=C(c1cccn2cc(Br)nc12)N1CCN(CCc2ccc(F)cc2F)CC1,Ki,[1],682 nM
same,Ki,[2],1.7 nM
O=C(c1nn2ccccc2c1Br)N1CCN(CCc2ccc(F)cc2F)CC1,Ki,[1],496 nM
same,Ki,[2],0.8 nM
O=C(c1cccn2ccnc12)N1CCN(CCc2ccc(F)cc2F)CC1,half-life,[3],30 min
same,Activity,[4],< 50%
same,Activity,[5],< 50%
same,AUClast,Rattus norvegicus [6],440 ng·h/mL
same,Ki,[1],524 nM
same,Activity,Canis familiaris [7],Non-toxic
same,Kp,[8],1.32
same,IC50,Cytochrome P450 2D6,> 40000 nM
same,Activity,Rattus norvegicus [9],Dose-dependent effect
same,clearance,Rattus norvegicus [10],58.3 mL/min/kg
same,Activity,Rattus norvegicus [11],Active
same,Activity,[12],< 50%
same,Activity,Canis familiaris [13],Non-toxic
same,fraction unbound,[14],0.326
same,IC50,Cytochrome P450 2C9,> 40000 nM
same,Cmax,[15],943 ng/mL
same,Activity,Rattus norvegicus [16],Active
same,Activity,Rattus norvegicus [17],Dose-dependent effect
same,bioavailability,Rattus norvegicus [18],47%
same,Activity,[19],< 50%
same,Vdss,Rattus norvegicus [20],1.7 L/kg
same,IC50,Cytochrome P450 3A4,> 40000 nM
same,IC50,Cytochrome P450 2C19,> 40000 nM
same,Activity,[21],< 50%
same,half-life,[22],16 min
same,Activity,[23],< 50%
same,IC50,Cytochrome P450 1A2,> 40000 nM
same,concentration at 0.75 h,[24],11 ng/mL
same,concentration at 0.75 h,[25],14.5 ng/mL
same,Activity,Rattus norvegicus [26],Dose-dependent effect
same,Activity,[27],< 50%
same,ED50,Rattus norvegicus [28],0.3 mg/kg
O=C(c1cn2ccccc2n1)N1CCN(CCc2ccc(F)cc2F)CC1,Ki,[1],596 nM
same,Ki,[2],4.3 nM
O=C(c1cnn2cc(Cl)ccc12)N1CCN(CCc2ccc(F)cc2F)CC1,Ki,[1],575 nM
same,Ki,[2],5.9 nM
O=C(c1cnc2ccccn12)N1CCN(CCc2ccc(F)cc2F)CC1,Ki,[1],739 nM
same,Ki,[2],1.7 nM
O=C(c1cnn2cccnc12)N1CCN(CCc2ccc(F)cc2F)CC1,Ki,[1],910 nM
same,Ki,[2],3.8 nM
